Data from patent US8269013B2, “Substituted pyrazole inhibitors of c-Met protein kinase” (Vertex Pharmaceuticals Incorporated, priority 2009, dated 2012).
pIC50, pKi: −log10 of the molar value.

Experiments:
[1] = tested on: c-Met in Snu5-AP1-Luc-Pest cells; assay: Inhibition of c-Met activity in Snu5 gastric carcinoma cells (Snu5-AP1-Luc-Pest luciferase reporter); type: cell-based, human; conditions: Steady-Glo luminescence, 4-parameter fit
Description: Compounds of formula I were also screened for their ability to inhibit the Luciferase-induced signal in an engineered Snu5 cell line. […] The constitutively active c-Met activates cellular pathways (principally MAP kinase), resulting in AP-1-induced transcription of luciferase-PEST and translation into the final product, the activity of which is quantifiable as a chemiluminescent readout upon the addition of luciferin (Steady-Glo from Promega.). Residual luminescence is strongly correlated to the inhibition of c-Met. A stable cell line was obtained by selecting the new cell line (Snu5-AP1-Luc-Pest) with puromycin. The cells were grown in complete media [Iscove's media (Invitrogen) containing 10% fetal bovine serum (FBS, Hyclone) and penicillin/gentamycin (Invitrogen)]. Compounds of the invention were dissolved in DMSO to make 10 mM initial stock solutions. Serial dilutions in DMSO were then made and transferred to complete medium to make a 10× solution. The Snu5-AP1-Luc-Pest cells were counted and diluted to 200,000-cells/mL solution. The cells (90 μL) were added to each well in a 96-well black with clear bottom plate (Costar). Then 10 μL of the 10× compound solution was added to the cells in triplicate. The plates were incubated in a 37° C./5% CO2 incubator. After 6 hours, 50 μL of the Steady-Glo reagent (Promega) was added to each well and placed on a plate shaker for 5 minutes to ensure that the cells were completely lysed.

c-Met = c-Met (Homo sapiens, UniProt P08581); assay: c-Met kinase inhibition assay (radiometric, 33P-ATP, polyE4Y); type: biochemical; conditions: 0.5 nM c-Met, 35 μM ATP, 0.5 mg/mL polyE4Y, 20 min; competitive tight-binding fit
Procedure: The compounds of the invention were screened for their ability to inhibit c-Met kinase using a standard radiometric assay. Briefly, in this kinase assay the transfer of the terminal ^33P-phosphate in ^33P-ATP to substrate polyE4Y is interrogated. […] Accordingly, compounds of the invention were dissolved in DMSO to make 10 mM initial stock solutions. Serial dilutions in DMSO were then made to obtain the final solutions for the assay. A 1.5 μL aliquot of DMSO or inhibitor in DMSO was added to each well, followed by the addition of ^33P-ATP, and finally the addition of c-Met and polyE4Y (obtained from Sigma). After 20 min, the reaction was quenched with 50 μL of 30% trichloroacetic acid (TCA) containing 4 mM ATP. The reaction mixture was transferred to the 0.66 mm GF filter plates (Corning) and washed three times with 5% TCA. Following the addition of 50 μL of Ultimate Gold™ high efficiency scintillant (Packard Bioscience), the samples were counted in a Packard TopCount NXT Microplate Scintillation and Luminescence Counter (Packard BioScience). The Ki values, shown in Table 2, were calculated using Microsoft Excel Solver macros to fit the data to the kinetic model for competitive tight-binding inhibition.

Chain of c-Met (P08581 25-1390): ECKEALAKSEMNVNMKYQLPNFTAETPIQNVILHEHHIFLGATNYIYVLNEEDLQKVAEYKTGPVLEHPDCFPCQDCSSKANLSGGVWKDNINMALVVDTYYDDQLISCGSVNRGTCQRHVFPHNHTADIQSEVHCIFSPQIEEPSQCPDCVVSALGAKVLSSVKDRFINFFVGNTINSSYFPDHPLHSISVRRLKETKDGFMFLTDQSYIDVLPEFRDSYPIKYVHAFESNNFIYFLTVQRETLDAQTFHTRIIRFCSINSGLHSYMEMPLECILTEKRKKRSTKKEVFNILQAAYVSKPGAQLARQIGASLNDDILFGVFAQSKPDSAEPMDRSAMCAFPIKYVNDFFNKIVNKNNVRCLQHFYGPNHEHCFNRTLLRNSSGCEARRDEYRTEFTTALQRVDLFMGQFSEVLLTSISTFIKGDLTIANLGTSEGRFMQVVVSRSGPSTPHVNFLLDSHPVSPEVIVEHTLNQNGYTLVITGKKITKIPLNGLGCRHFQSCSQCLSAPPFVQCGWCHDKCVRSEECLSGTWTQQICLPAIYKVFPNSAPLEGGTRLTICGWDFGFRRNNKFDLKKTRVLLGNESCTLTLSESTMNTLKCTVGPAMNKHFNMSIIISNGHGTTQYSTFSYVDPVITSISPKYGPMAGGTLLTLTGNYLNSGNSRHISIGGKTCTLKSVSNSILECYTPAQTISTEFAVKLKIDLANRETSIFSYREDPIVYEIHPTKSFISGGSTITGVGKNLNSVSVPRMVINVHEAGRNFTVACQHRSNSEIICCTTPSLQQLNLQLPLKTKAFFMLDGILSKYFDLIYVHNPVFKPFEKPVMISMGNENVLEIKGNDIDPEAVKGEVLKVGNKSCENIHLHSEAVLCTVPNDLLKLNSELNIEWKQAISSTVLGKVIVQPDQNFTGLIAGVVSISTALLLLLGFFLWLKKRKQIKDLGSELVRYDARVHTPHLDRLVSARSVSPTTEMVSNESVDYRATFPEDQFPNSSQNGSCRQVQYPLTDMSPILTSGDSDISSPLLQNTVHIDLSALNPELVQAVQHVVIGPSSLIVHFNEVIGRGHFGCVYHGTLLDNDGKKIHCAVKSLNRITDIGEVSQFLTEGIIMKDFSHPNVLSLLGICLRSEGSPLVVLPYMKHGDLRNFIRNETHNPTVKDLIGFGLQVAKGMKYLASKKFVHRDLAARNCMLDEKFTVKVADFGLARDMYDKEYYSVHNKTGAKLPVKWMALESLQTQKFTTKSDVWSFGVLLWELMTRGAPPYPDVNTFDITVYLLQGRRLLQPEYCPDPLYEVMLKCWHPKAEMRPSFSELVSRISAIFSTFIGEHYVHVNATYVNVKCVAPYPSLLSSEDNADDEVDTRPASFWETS

| Compound | pIC50 ([1]; Homo sapiens, SNU-5, 6 hours) | pKi (c-Met) | pIC50 ([1]; 6 hours) |
| --- | --- | --- | --- |
| Cc1nn(C)cc1-c1nn2c(C(F)(F)c3ccc4ncccc4c3)nnc2s1 [Compound 20] | 8.40 | 7.85 |  |
| CC(C)c1nn(C)cc1-c1nn2c(Cc3ccc4ncccc4c3)nnc2s1 [Compound 4] |  |  | 8.52 |
| Cn1cc(-c2nn3c(C(F)(F)c4ccc5ncccc5c4)nnc3s2)cn1 [reference compound] | 7.85 | 7.44 |  |
| Cc1nn(C)cc1-c1nn2c(C(C)(C)c3ccc4ncccc4c3)nnc2s1 [Compound 13] | 6.60 | 6.44 |  |
| C[C@@H](c1ccc2ncccc2c1)c1nnc2sc(-c3cnn(C)c3)nn12 [reference compound] | 7.82 | 7.62 |  |
| Cn1cc(-c2nn3c(C(C)(C)c4ccc5ncccc5c4)nnc3s2)cn1 [reference compound] | < 6.00 | 5.47 |  |
| Cn1cc(-c2nn3c(Cc4c(F)cc5ncccc5c4F)nnc3s2)cn1 [reference compound] | 7.92 | 7.80 |  |
| CC(C)c1nn(C)cc1-c1nn2c(C(F)(F)c3ccc4ncccc4c3)nnc2s1 [Compound 21] | 8.22 | 8.40 |  |
| Cn1cc(-c2nn3c(Cc4ccc5ncccc5c4)nnc3s2)c(C(F)(F)F)n1 [Compound 3] |  |  | 8.70 |
| Cc1nn(C)cc1-c1nn2c([C@H](C)c3c(F)cc4ncccc4c3F)nnc2s1 [Compound 19] | 8.30 | 7.66 |  |
| CCc1nn(C)cc1-c1nn2c([C@@H](C)c3ccc4ncccc4c3)nnc2s1 [Compound 10] | 8.21 | 8.30 |  |
| C[C@@H](c1c(F)cc2ncccc2c1F)c1nnc2sc(-c3cnn(C)c3)nn12 [reference compound] | 8.22 | 8.30 |  |
| C[C@H](c1c(F)cc2ncccc2c1F)c1nnc2sc(-c3cnn(C)c3)nn12 [reference compound] | 7.22 | 7.15 |  |
| Cn1cc(-c2nn3c(Cc4ccc5ncccc5c4)nnc3s2)cn1 [reference compound] | 7.07 |  |  |
| CCc1nn(C)cc1-c1nn2c([C@H](C)c3ccc4ncccc4c3)nnc2s1 [Compound 7] | 8.22 | 8.00 |  |
| CCc1nn(C)cc1-c1nn2c(Cc3ccc4ncccc4c3)nnc2s1 [Compound 2] |  |  | 8.40 |
| C[C@H](c1ccc2ncccc2c1)c1nnc2sc(-c3cnn(C)c3)nn12 [reference compound] | 7.05 | 6.61 |  |
| Cc1nn(C)cc1-c1nn2c(Cc3ccc4ncccc4c3)nnc2s1 [Compound 1] |  |  | 8.70 |
| C[C@@H](c1ccc2ncccc2c1)c1nnc2sc(-c3cn(C)nc3C3CC3)nn12 [Compound 12] | 8.15 | 8.15 |  |

More lines, in order of rising pIC50 ([1]; Homo sapiens, SNU-5, 6 hours), values ahead:

| pIC50 ([1]; Homo sapiens, SNU-5, 6 hours) | pKi (c-Met) | pIC50 ([1]; 6 hours) | Compound |
| --- | --- | --- | --- |
| 8.52 | 8.62 |  | CC(C)c1nn(C)cc1-c1nn2c(Cc3c(F)cc4ncccc4c3F)nnc2s1 [Compound 16] |
| 8.52 | 7.82 |  | Cc1nn(C)cc1-c1nn2c([C@@H](C)c3ccc4ncccc4c3)nnc2s1 [Compound 9] |
| 8.52 | 7.62 |  | C[C@H](c1ccc2ncccc2c1)c1nnc2sc(-c3cn(C)nc3C3CC3)nn12 [Compound 8] |
| 8.60 | 8.70 |  | Cn1cc(-c2nn3c(Cc4c(F)cc5ncccc5c4F)nnc3s2)c(C(F)(F)F)n1 [Compound 17] |
| 8.60 | 7.62 |  | Cc1nn(C)cc1-c1nn2c([C@H](C)c3ccc4ncccc4c3)nnc2s1 [Compound 5] |
| 8.70 | 8.52 |  | C[C@@H](c1ccc2ncccc2c1)c1nnc2sc(-c3cn(C)nc3C(F)(F)F)nn12 [Compound 11] |
| 8.70 | 8.60 |  | CCc1nn(C)cc1-c1nn2c(Cc3c(F)cc4ncccc4c3F)nnc2s1 [Compound 15] |
| 8.70 | 8.15 |  | C[C@H](c1ccc2ncccc2c1)c1nnc2sc(-c3cn(C)nc3C(F)(F)F)nn12 [Compound 6] |
| 8.70 | 8.15 |  | Cc1nn(C)cc1-c1nn2c(Cc3c(F)cc4ncccc4c3F)nnc2s1 [Compound 14] |
| 9.30 | 8.70 |  | Cc1nn(C)cc1-c1nn2c([C@@H](C)c3c(F)cc4ncccc4c3F)nnc2s1 [Compound 18] |
